Source: US8956999B2, “Herbicides” (Syngenta Limited, priority 2007, dated 2015)

Experiments:
Format in all cases: in vivo
[1] = test system: Amaranthus retoflexus (AMARE); test: Example B post-emergence herbicidal test, glasshouse; settings: Amaranthus retroflexus, 312 h, evaluated after 13 days, read-out: Post-Emergence Activity AMARE (100=total damage to plant; 0=no damage to plant); for pest or weed control at 1000 g/ha: rate 1000 g/ha; for pest or weed control at 250 g/ha: rate 250 g/ha
Method: (§1) Seeds of a variety of test species were sown in standard soil in pots. After cultivation for one day (pre-emergence) or after 8 days cultivation (post-emergence) under controlled conditions in a glasshouse (at 24/16° C., day/night; 14 hours light; 65% humidity), the plants were sprayed with an aqueous spray solution derived from the formulation of the technical active ingredient in acetone/water (50:50) solution containing 0.5% Tween 20 (polyoxyethelyene sorbitan monolaurate, CAS RN 9005-64-5). The test plants were then grown in a glasshouse under controlled conditions in a glasshouse (at 24/16° C., day/night; 14 hours light; 65% humidity) and watered twice daily. After 13 days for pre and post-emergence, the test was evaluated (100=total damage to plant; 0=no damage to plant). Test Plants: Alopecurus myosuroides (ALOMY), Avena fatua (AVEFA), Setaria faberi (SETFA), Echinochloa crus-galli (ECHCG), Solanum nigrum (SOLNI) and Amaranthus retoflexus (AMARE)

[2] = test system: Alopecurus myosuroides (ALOMY); test: as above; settings: 312 h, evaluated after 13 days, read-out: Post-Emergence Activity ALOMY (100=total damage to plant; 0=no damage to plant); for pest or weed control at 1000 g/ha: rate 1000 g/ha; for pest or weed control at 250 g/ha: rate 250 g/ha
Method: as §1

[3] = test system: Echinochloa crus-galli (ECHCG); test: as above; settings: 312 h, evaluated after 13 days; for pest or weed control at 1000 g/ha: rate 1000 g/ha, read-out: Post-Emergence Activity ECHCG (100=total damage to plant; 0=no damage to plant); for pest or weed control at 250 g/ha: rate 250 g/ha, read-out: Post-Emergence Activity ECHGG (100=total damage to plant; 0=no damage to plant)
Method: as §1

[4] = test system: Avena fatua (AVEFA); test: as above; settings: 312 h, evaluated after 13 days, read-out: Post-Emergence Activity AVEFA (100=total damage to plant; 0=no damage to plant); for pest or weed control at 1000 g/ha: rate 1000 g/ha; for pest or weed control at 250 g/ha: rate 250 g/ha
Method: as §1

[5] = test system: Setaria faberi (SETFA); test: as above; settings: 312 h, evaluated after 13 days; for pest or weed control at 1000 g/ha: rate 1000 g/ha, read-out: Post-Emergence Activity SETFA (100=total damage to plant; 0=no damage to plant); for pest or weed control at 250 g/ha: rate 250 g/ha, read-out: Post-Emergence Activity SEFTA (100=total damage to plant; 0=no damage to plant)
Method: as §1

[6] = test system: Solanum nigrum (SOLNI); test: as above; settings: 312 h, rate 1000 g/ha, evaluated after 13 days, read-out: Post-Emergence Activity SOLNI (100=total damage to plant; 0=no damage to plant)
Method: as §1

[7] = test system: Amaranthus retoflexus (AMARE); test: Example B pre-emergence herbicidal test, glasshouse; settings: Amaranthus retroflexus, 312 h, evaluated after 13 days, 100=total damage to plant, 0=no damage to plant; for pest or weed control at 1000 g/ha: rate 1000 g/ha; for pest or weed control at 250 g/ha: rate 250 g/ha
Method: as §1

[8] = test system: Alopecurus myosuroides (ALOMY); test: as above; settings: 312 h, evaluated after 13 days, 100=total damage to plant, 0=no damage to plant; for pest or weed control at 1000 g/ha: rate 1000 g/ha; for pest or weed control at 250 g/ha: rate 250 g/ha
Method: as §1

[9] = test system: Echinochloa crus-galli (ECHCG); test: as above; settings: evaluated after 13 days, 100=total damage to plant, 0=no damage to plant; for Pre-Emergence Activity ECHCG: rate 1000 g/ha; for pest or weed control at 250 g/ha: Echinochloa crus-galli, 312 h, rate 250 g/ha, read-out: Pre-Emergence Activity ECHGG
Method: as §1

[10] = test system: Avena fatua (AVEFA); test: as above; settings: 312 h, evaluated after 13 days, 100=total damage to plant, 0=no damage to plant; for pest or weed control at 1000 g/ha: rate 1000 g/ha; for pest or weed control at 250 g/ha: rate 250 g/ha
Method: as §1

[11] = test system: Setaria faberi (SETFA); test: as above; settings: evaluated after 13 days, 100=total damage to plant, 0=no damage to plant; for Pre-Emergence Activity SETFA: rate 1000 g/ha; for pest or weed control at 250 g/ha: Setaria faberi, 312 h, rate 250 g/ha, read-out: Pre-Emergence Activity SEFTA
Method: as §1

[12] = test system: Solanum nigrum (SOLNI); test: as above; settings: rate 1000 g/ha, evaluated after 13 days, 100=total damage to plant, 0=no damage to plant
Method: as §1

CCc1sc(-c2ccc(Cl)cc2)nc1C1=C(OC(=O)C(C)(C)C)C(C)(C)OC(C)(C)C1=O [Compound P2, 2,2-dimethylpropionic acid 4-[2-(4-chlorophenyl)-5-ethylthiazol-4-yl]-2,2,6,6-tetramethyl-5-oxo-5,6-dihydro-2H-pyran-3-yl ester]
pest or weed control at 1000 g/ha [1]: 0%
pest or weed control at 1000 g/ha [2]: 90%
pest or weed control at 1000 g/ha [3]: 100%
pest or weed control at 1000 g/ha [4]: 90%
pest or weed control at 1000 g/ha [5]: 100%
pest or weed control at 1000 g/ha [6]: 0%
pest or weed control at 1000 g/ha [7]: 80%
pest or weed control at 1000 g/ha [8]: 60%
Pre-Emergence Activity ECHCG [9]: 50
pest or weed control at 1000 g/ha [10]: 30%
Pre-Emergence Activity SETFA [11]: 80
Pre-Emergence Activity SOLNI [12]: 0

Cc1sc(-c2ccc(Cl)cc2)nc1C1C(=O)C(C)(C)C(=O)C(C)(C)C1=O [Compound T1]
pest or weed control at 1000 g/ha [1]: 0%
pest or weed control at 1000 g/ha [2]: 90%
pest or weed control at 1000 g/ha [3]: 90%
pest or weed control at 1000 g/ha [4]: 80%
pest or weed control at 1000 g/ha [5]: 90%
pest or weed control at 1000 g/ha [6]: 0%

Cc1ocnc1C1C(=O)C(C)(C)C(=O)C(C)(C)C1=O [Compound T2]
pest or weed control at 1000 g/ha [1]: 0%
pest or weed control at 1000 g/ha [2]: 0%
pest or weed control at 1000 g/ha [3]: 0%
pest or weed control at 1000 g/ha [4]: 0%
pest or weed control at 1000 g/ha [5]: 0%
pest or weed control at 1000 g/ha [6]: 40%
pest or weed control at 1000 g/ha [7]: 50%
pest or weed control at 1000 g/ha [8]: 0%
Pre-Emergence Activity ECHCG [9]: 0
pest or weed control at 1000 g/ha [10]: 0%
Pre-Emergence Activity SETFA [11]: 0
Pre-Emergence Activity SOLNI [12]: 60

Cc1sc(-c2ccc(F)cc2)nc1C1C(=O)C(C)(C)C(=O)C(C)(C)C1=O [Compound T8]
pest or weed control at 1000 g/ha [1]: 0%
pest or weed control at 1000 g/ha [2]: 40%
pest or weed control at 1000 g/ha [3]: 70%
pest or weed control at 1000 g/ha [4]: 0%
pest or weed control at 1000 g/ha [5]: 80%
pest or weed control at 1000 g/ha [6]: 20%
pest or weed control at 1000 g/ha [7]: 0%
pest or weed control at 1000 g/ha [8]: 30%
Pre-Emergence Activity ECHCG [9]: 0
pest or weed control at 1000 g/ha [10]: 20%
Pre-Emergence Activity SETFA [11]: 0
Pre-Emergence Activity SOLNI [12]: 0

Cc1sc(-c2cc(Cl)ccc2Cl)nc1C1C(=O)C(C)(C)C(=O)C(C)(C)C1=O [Compound T10, 6-[2-(2,5-dichlorophenyl)-5-methylthiazol-4-yl]-2,2,4,4-tetramethyl-cyclohexane-1,3,5-trione]
pest or weed control at 1000 g/ha [1]: 0%
pest or weed control at 1000 g/ha [2]: 40%
pest or weed control at 1000 g/ha [3]: 70%
pest or weed control at 1000 g/ha [4]: 0%
pest or weed control at 1000 g/ha [5]: 80%
pest or weed control at 1000 g/ha [6]: 20%
pest or weed control at 1000 g/ha [7]: 0%
pest or weed control at 1000 g/ha [8]: 30%
Pre-Emergence Activity ECHCG [9]: 0
pest or weed control at 1000 g/ha [10]: 20%
Pre-Emergence Activity SETFA [11]: 0
Pre-Emergence Activity SOLNI [12]: 0

Cc1sc(OCc2cnc(Br)s2)nc1C1C(=O)C(C)(C)OC(C)(C)C1=O [Compound T14]
pest or weed control at 250 g/ha [1]: 0%
pest or weed control at 250 g/ha [2]: 40%
pest or weed control at 250 g/ha [3]: 70%
pest or weed control at 250 g/ha [4]: 0%
pest or weed control at 250 g/ha [5]: 90%
pest or weed control at 250 g/ha [7]: 0%
pest or weed control at 1000 g/ha [7]: 0%
pest or weed control at 250 g/ha [8]: 0%
pest or weed control at 1000 g/ha [8]: 40%
pest or weed control at 250 g/ha [9]: 0%
Pre-Emergence Activity ECHCG [9]: 0
pest or weed control at 250 g/ha [10]: 0%
pest or weed control at 1000 g/ha [10]: 0%
pest or weed control at 250 g/ha [11]: 50%
Pre-Emergence Activity SETFA [11]: 0
Pre-Emergence Activity SOLNI [12]: 0

Cc1sc(-c2ccc(Cl)c(C(F)(F)F)c2)nc1C1C(=O)C(C)(C)OC(C)(C)C1=O [Compound T15]
pest or weed control at 1000 g/ha [1]: 0%
pest or weed control at 1000 g/ha [2]: 40%
pest or weed control at 1000 g/ha [3]: 70%
pest or weed control at 1000 g/ha [4]: 0%
pest or weed control at 1000 g/ha [5]: 0%
pest or weed control at 1000 g/ha [6]: 0%

COC(=O)c1ccc(-c2cc(C3C(=O)C(C)(C)OC(C)(C)C3=O)c(C)s2)cc1 [Compound T20]
pest or weed control at 1000 g/ha [1]: 0%
pest or weed control at 1000 g/ha [2]: 0%
pest or weed control at 1000 g/ha [3]: 0%
pest or weed control at 1000 g/ha [4]: 0%
pest or weed control at 1000 g/ha [5]: 10%
pest or weed control at 1000 g/ha [6]: 0%
pest or weed control at 1000 g/ha [7]: 80%
pest or weed control at 1000 g/ha [8]: 30%
Pre-Emergence Activity ECHCG [9]: 0
pest or weed control at 1000 g/ha [10]: 0%
Pre-Emergence Activity SETFA [11]: 0
Pre-Emergence Activity SOLNI [12]: 70

Cc1sc(-c2ccc([S+](C)[O-])cc2)nc1C1C(=O)C(C)(C)OC(C)(C)C1=O (centres unmarked) [Compound T68]
pest or weed control at 250 g/ha [1]: 0%
pest or weed control at 250 g/ha [2]: 0%
pest or weed control at 250 g/ha [3]: 80%
pest or weed control at 250 g/ha [4]: 0%
pest or weed control at 250 g/ha [5]: 70%
pest or weed control at 250 g/ha [7]: 0%
pest or weed control at 250 g/ha [8]: 0%
pest or weed control at 250 g/ha [9]: 20%
pest or weed control at 250 g/ha [10]: 0%
pest or weed control at 250 g/ha [11]: 20%

CCc1sc(-c2ccc(SC)cc2)nc1C1C(=O)C(C)(C)OC(C)(C)C1=O [Compound T69]
pest or weed control at 250 g/ha [1]: 0%
pest or weed control at 250 g/ha [2]: 60%
pest or weed control at 250 g/ha [3]: 100%
pest or weed control at 250 g/ha [4]: 40%
pest or weed control at 250 g/ha [5]: 90%
pest or weed control at 250 g/ha [7]: 0%
pest or weed control at 250 g/ha [8]: 0%
pest or weed control at 250 g/ha [9]: 20%
pest or weed control at 250 g/ha [10]: 0%
pest or weed control at 250 g/ha [11]: 20%

Cc1sc(-c2ccc(OC(F)F)cc2Cl)nc1C1C(=O)C(C)(C)OC(C)(C)C1=O [Compound T70]
pest or weed control at 250 g/ha [1]: 0%
pest or weed control at 250 g/ha [2]: 70%
pest or weed control at 250 g/ha [3]: 90%
pest or weed control at 250 g/ha [4]: 10%
pest or weed control at 250 g/ha [5]: 90%
pest or weed control at 250 g/ha [7]: 0%
pest or weed control at 250 g/ha [8]: 30%
pest or weed control at 250 g/ha [9]: 70%
pest or weed control at 250 g/ha [10]: 0%
pest or weed control at 250 g/ha [11]: 70%

Cc1cnc(-c2ccc(Cl)cc2)nc1C1C(=O)C(C)(C)OC(C)(C)C1=O [Compound T71, 4-[2-(4-chlorophenyl)-5-methylpyrimidin-4-yl]-2,2,6,6-tetramethylpyran-3,5-dione]
pest or weed control at 250 g/ha [1]: 0%
pest or weed control at 250 g/ha [2]: 20%
pest or weed control at 250 g/ha [3]: 90%
pest or weed control at 250 g/ha [4]: 40%
pest or weed control at 250 g/ha [5]: 90%
pest or weed control at 250 g/ha [7]: 0%
pest or weed control at 250 g/ha [8]: 20%
pest or weed control at 250 g/ha [9]: 60%
pest or weed control at 250 g/ha [10]: 0%
pest or weed control at 250 g/ha [11]: 50%
